{"source": "patent US20240358668A1", "about": "“METHODS AND CO[…] AM[…] CARD[…] USING (R)-2-AMINO-3-PH[…]” (AXSOME THERAPEUTICS, INC., priority 2021, published 2024)", "key": {"[1]": {"tested_on": "participants with narcolepsy", "test": "Study 14-002, 12-week randomized controlled trial: 24-hour ABPM at screening and week 8", "assay_type": "in vivo, human", "conditions": "for effect on percentage of participants with a non-dipping BP profile: screening to week 8, any dose studied", "protocol": "Solriamfetol is a dopamine and norepinephrine reuptake inhibitor indicated to improve wakefulness in adult patients with excessive daytime sleepiness associated with narcolepsy (75-150 mg/d) or obstructive sleep apnea (37.5-150 mg/d). Previous studies reported small mean increases in blood pressure (BP); however, the time course of these effects has not been evaluated. […] These analyses evaluated the effects of solriamfetol treatment on BP using 24-hour ambulatory blood pressure monitoring (ABPM) and on the percentage of narcolepsy patients with a non-dipping BP profile.\nTwenty-four-hour ABPM was conducted at baseline and week 8 in a 12-week randomized controlled trial in participants with narcolepsy (n=236). Blood pressure was collected every 30 minutes."}, "[2]": {"tested_on": "adults with EDS associated with OSA", "test": "Long-term OLE trial in OSA: vital signs, antihypertensive medication use, AEs of hypertension/increased BP", "assay_type": "in vivo, human", "protocol": "An exploratory analysis of data from one 12-week randomized, controlled trial (Schweitzer P K, et al. Am J Respir Crit Care Med. 2019; 199(11):1421-31) and 1 long-term open-label extension (OLE) trial in adults with EDS (Epworth Sleepiness Scale score ≥10) associated with OSA (Malhotra A, et al. Sleep. 2020; 43(2):zsz220) was carried out. Participants with current/prior use of primary OSA therapy (positive airway pressure [PAP], oral pressure therapy, oral appliance, or upper airway stimulation) were eligible, regardless of the level of adherence to primary OSA therapy; participants who had not attempted to use primary OSA therapy were excluded. Adherence to primary OSA therapy was defined as PAP use ≥4 hours/night on ≥70% of nights/week, historical report (with investigator concurrence) of oral appliance use on ≥70% of nights, or effective surgical intervention. Nonadherence to primary OSA therapy was defined as device use at a level lower than specific above, no device use at all, or surgical intervention deemed no longer effective. Participants received placebo or solriamfetol 37.5 (12-week trial only), 75, 150, or 300 mg/day for 12 weeks (12-week trial) or ≤40 weeks (OLE trial). Vital signs, antihypertensive medication use, and adverse events (AEs) were monitored throughout the studies. Baseline demographics, CV comorbidities, and concomitant medications, the percentage of participants who initiated antihypertensive medication use during treatment, and the incidence of and discontinuations due to AEs of hypertension/increased BP were summarized for the safety population (participants who received ≥1 dose of study medication)."}}, "note": "Marks after values point to notes of the source that are not given here."}
{"smiles": "NC(=O)OC[C@H](N)Cc1ccccc1", "note": "[Solriamfetol, (R)-2-amino-3-phenylpropyl carbamate]", "values": [{"measurement": "Mean Change in DBP on ABPM from Screening to Week 8, Mean (SD)", "setting": "[1]; 75 mg", "value": "1.4 (5.13) mmHg"}, {"measurement": "Mean Change in HR on ABPM from Screening to Week 8, Mean (SD)", "setting": "[1]; 75 mg", "value": "1.0 (7.95) bpm"}, {"measurement": "Mean Change in SBP on ABPM from Screening to Week 8, Mean (SD)", "setting": "[1]; 75 mg", "value": "1.8 (6.53) mmHg"}, {"measurement": "Mean Change in DBP on ABPM from Screening to Week 8, Mean (SD)", "setting": "[1]; 75 mg, listed as solriamfetol", "value": 1.4, "unit": "mmHg"}, {"measurement": "Mean Change in SBP on ABPM from Screening to Week 8, Mean (SD)", "setting": "[1]; 75 mg, listed as solriamfetol", "value": 1.8, "unit": "mmHg"}, {"measurement": "Mean Change in DBP on ABPM from Screening to Week 8, Mean (SD)", "setting": "[1]; 150 mg", "value": "0.4 (4.46) mmHg"}, {"measurement": "Mean Change in HR on ABPM from Screening to Week 8, Mean (SD)", "setting": "[1]; 150 mg", "value": "0.7 (7.12) bpm"}, {"measurement": "Mean Change in SBP on ABPM from Screening to Week 8, Mean (SD)", "setting": "[1]; 150 mg", "value": "−0.5 (5.51) mmHg"}, {"measurement": "Mean Change in DBP on ABPM from Screening to Week 8, Mean (SD)", "setting": "[1]; 150 mg, listed as solriamfetol", "value": 0.4, "unit": "mmHg"}, {"measurement": "Mean Change in SBP on ABPM from Screening to Week 8, Mean (SD)", "setting": "[1]; 150 mg, listed as solriamfetol", "value": "−0.5", "unit": "mmHg"}, {"measurement": "Mean Change in DBP on ABPM from Screening to Week 8, Mean (SD)", "setting": "[1]; 300 mg", "value": "3.0 (4.97) mmHg"}, {"measurement": "Mean Change in HR on ABPM from Screening to Week 8, Mean (SD)", "setting": "[1]; 300 mg", "value": "5.3 (7.55) bpm"}, {"measurement": "Mean Change in SBP on ABPM from Screening to Week 8, Mean (SD)", "setting": "[1]; 300 mg", "value": "2.4 (5.97) mmHg"}, {"measurement": "Mean Change in DBP on ABPM from Screening to Week 8, Mean (SD)", "setting": "[1]; 300 mg, listed as solriamfetol", "value": 3.0, "unit": "mmHg"}, {"measurement": "Mean Change in SBP on ABPM from Screening to Week 8, Mean (SD)", "setting": "[1]; 300 mg, listed as solriamfetol", "value": 2.4, "unit": "mmHg"}, {"measurement": "percentage of non-dippers (<10% decrease in MAP during sleep)", "setting": "[1]; combined solriamfetol, week 8 (baseline 48%)", "value": 39, "unit": "%"}, {"measurement": "time course of effects on BP (24-hour ABPM)", "setting": "[1]; highest approved dose of 150 mg/d", "value": "transient across the day"}, {"measurement": "effect on percentage of participants with a non-dipping BP profile", "setting": "[1]", "value": "not observed to have an increase"}, {"measurement": "effect on percentage of participants with a non-dipping BP profile", "setting": "[1]; listed as solriamfetol", "value": "did not increase"}, {"measurement": "change in DBP from baseline to week 40", "setting": "[2]; OLE", "value": 0.29, "unit": "mm Hg"}, {"measurement": "change in HR from baseline to week 40", "setting": "[2]; OLE", "value": "−1.94", "unit": "bpm"}, {"measurement": "change in SBP from baseline to week 40", "setting": "[2]; OLE", "value": "−0.49", "unit": "mm Hg"}, {"measurement": "total participants with AEs of hypertension/increased BP", "setting": "[2]; OLE", "value": 22, "unit": "participants"}, {"measurement": "serious AE of cerebrovascular accident", "setting": "[2]; OLE trial", "value": 1}, {"measurement": "Discontinuation due to AE of HTN/increased BP", "setting": "[2]; OLE, 75 mg", "value": "1 (0.2)^d n (%)"}, {"measurement": "Initiated anti-HTN", "setting": "[2]; OLE, 75 mg", "value": "3 (6.1) n (%)"}, {"measurement": "AE of HTN/increased BP", "setting": "[2]; OLE, 75 mg, % of participants that ever received the dose level (n = 417)", "value": "4 (1.0) n (%)"}, {"measurement": "Discontinuation due to AE of HTN/increased BP, (%)", "setting": "[2]; OLE, 150 mg", "value": "(0.2)^d %"}, {"measurement": "Initiated anti-HTN", "setting": "[2]; OLE, 150 mg", "value": "2 (1.4) n (%)"}, {"measurement": "AE of HTN/increased BP, (%)", "setting": "[2]; OLE, 150 mg, % of participants that ever received the dose level (n = 402)", "value": "(1.5) %"}, {"measurement": "Discontinuation due to AE of HTN/increased BP, (%)", "setting": "[2]; OLE, 300 mg", "value": "(0.3)^e %"}, {"measurement": "Initiated anti-HTN", "setting": "[2]; OLE, 300 mg", "value": "3 (1.3) n (%)"}, {"measurement": "AE of HTN/increased BP, (%)", "setting": "[2]; OLE, 300 mg, % of participants that ever received the dose level (n = 326)", "value": "(3.7) %"}]}
